Results reported in ChEMBL document CHEMBL1201861, “Genomics of Drug Sensitity in Cancer screening data, Wellcome Trust Sanger Institute”.

Key:
Assay in all cases: cells
[1] = test system: Ca-Ski; type: functional, cell-based; conditions: Homo sapiens;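 note: cell viability assay measuring inhibition of Ca-Ski cell growth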
Description: SANGER: Inhibition of human Ca-Ski cell growth in a cell viability assay.

[2] = test system: CaR-1; type: functional, cell-based; conditions: Homo sapiens;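 note: growth inhibition of human CaR-1 cancer cells, read out with a cell viability assay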
Description: SANGER: Inhibition of human CaR-1 cell growth in a cell viability assay.

[3] = test system: DK-MG; type: functional, cell-based; conditions: Homo sapiens;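 note: growth inhibition of DK-MG cells, read out with a cell viability assay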
Description: SANGER: Inhibition of human DK-MG cell growth in a cell viability assay.

[4] = test system: DMS-273; type: functional, cell-based; conditions: Homo sapiens
Description: SANGER: Inhibition of human DMS-273 cell growth in a cell viability assay.

[5] = test system: EW-24; type: functional, cell-based, Homo sapiens; conditions: Homo sapiens, EW-24;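 note: human EW-24 cancer cell line, growth inhibition read out via a cell viability assay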
Description: SANGER: Inhibition of human EW-24 cell growth in a cell viability assay.

[6] = test system: HCC1395; type: functional, cell-based; conditions: Homo sapiens;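 note: growth inhibition of HCC1395 cells, read out by a cell viability assay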
Description: SANGER: Inhibition of human HCC1395 cell growth in a cell viability assay.

[7] = test system: HCC1954; type: functional, cell-based; conditions: Homo sapiens;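 note: growth inhibition of human HCC1954 cells, read out with a cell viability assay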
Description: SANGER: Inhibition of human HCC1954 cell growth in a cell viability assay.

[8] = test system: HGC-27; type: functional, cell-based; conditions: Homo sapiens;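 note: growth inhibition of human HGC-27 cells, read out in a cell viability assay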
Description: SANGER: Inhibition of human HGC-27 cell growth in a cell viability assay.

[9] = test system: HT1197; type: functional, cell-based, HT-1197; conditions: Homo sapiens
Description: SANGER: Inhibition of human HT-1197 cell growth in a cell viability assay.

[10] = test system: HT-1376; type: functional, cell-based; conditions: Homo sapiens
Description: SANGER: Inhibition of human HT-1376 cell growth in a cell viability assay.

[11] = test system: IGROV-1; type: functional, cell-based; conditions: Homo sapiens;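 note: reduction of IGROV-1 cell growth, read out with a viability assay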
Description: SANGER: Inhibition of human IGROV-1 cell growth in a cell viability assay.

[12] = test system: KYSE-140; type: functional, cell-based; conditions: Homo sapiens;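 note: cell viability assay measuring growth inhibition in human KYSE-140 cells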
Description: SANGER: Inhibition of human KYSE-140 cell growth in a cell viability assay.

[13] = test system: LB373-MEL-D; type: functional, cell-based, Homo sapiens; conditions: Homo sapiens, LB373-MEL-D;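 note: growth inhibition of the cell line, read out in a cell viability assay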
Description: SANGER: Inhibition of human LB373-MEL-D cell growth in a cell viability assay.

[14] = test system: MOLT-13; type: functional, cell-based; conditions: Homo sapiens;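 note: IC50 for suppression of MOLT-13 cell growth, read out with a cell viability assay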
Description: SANGER: Inhibition of human MOLT-13 cell growth in a cell viability assay.

[15] = test system: NB7; type: functional, cell-based, Homo sapiens; conditions: Homo sapiens, NB7;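 note: growth inhibition of NB7 cells, read out with a cell viability assay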
Description: SANGER: Inhibition of human NB7 cell growth in a cell viability assay.

[16] = test system: NCI-H1703; type: functional, cell-based; conditions: Homo sapiens;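 note: growth inhibition of NCI-H1703 cells, read out via a cell viability assay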
Description: SANGER: Inhibition of human NCI-H1703 cell growth in a cell viability assay.

[17] = test system: NCI-H2052; type: functional, cell-based; conditions: Homo sapiens;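 note: growth inhibition of NCI-H2052 cells, read out with a cell viability assay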
Description: SANGER: Inhibition of human NCI-H2052 cell growth in a cell viability assay.

[18] = test system: NCI-H2170; type: functional, cell-based; conditions: Homo sapiens;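 note: cell viability assay measuring growth inhibition of human NCI-H2170 cancer cells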
Description: SANGER: Inhibition of human NCI-H2170 cell growth in a cell viability assay.

[19] = test system: NCI-H596; type: functional, cell-based; conditions: Homo sapiens;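 note: growth inhibition of NCI-H596 cells, read out with a cell viability assay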
Description: SANGER: Inhibition of human NCI-H596 cell growth in a cell viability assay.

[20] = test system: NCI-H661; type: functional, cell-based; conditions: Homo sapiens;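 note: cell viability assay read-out, IC50 being the concentration that inhibits growth of the cells by half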
Description: SANGER: Inhibition of human NCI-H661 cell growth in a cell viability assay.

[21] = test system: PC-3; type: functional, cell-based; conditions: Homo sapiens;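 note: cell viability assay measuring growth inhibition of PC-3 cells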
Description: SANGER: Inhibition of human PC-3 cell growth in a cell viability assay.

[22] = test system: RVH-421; type: functional, cell-based; conditions: Homo sapiens
Description: SANGER: Inhibition of human RVH-421 cell growth in a cell viability assay.

[23] = test system: SBC-5; type: functional, cell-based; conditions: Homo sapiens;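 note: cell viability assay read-out, IC50 is the concentration that inhibits growth of the cells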
Description: SANGER: Inhibition of human SBC-5 cell growth in a cell viability assay.

[24] = test system: SK-HEP1; type: functional, cell-based, SK-HEP-1; conditions: Homo sapiens;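 note: cell viability readout used to quantify reduction in proliferation of human SK-HEP-1 cells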
Description: SANGER: Inhibition of human SK-HEP-1 cell growth in a cell viability assay.

[25] = test system: SK-MEL3; type: functional, cell-based, SK-MEL-3; conditions: Homo sapiens;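 note: growth inhibition of human SK-MEL-3 cells, read out with a cell viability assay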
Description: SANGER: Inhibition of human SK-MEL-3 cell growth in a cell viability assay.

[26] = test system: SK-MEL-30; type: functional, cell-based; conditions: Homo sapiens;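 note: growth inhibition of SK-MEL-30 cells, determined with a cell viability assay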
Description: SANGER: Inhibition of human SK-MEL-30 cell growth in a cell viability assay.

[27] = test system: SK-OV-3; type: functional, cell-based; conditions: Homo sapiens;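 note: growth inhibition of SK-OV-3 human cells, read out with a cell viability assay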
Description: SANGER: Inhibition of human SK-OV-3 cell growth in a cell viability assay.

[28] = test system: SW1783; type: functional, cell-based; conditions: Homo sapiens;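 note: cell growth inhibition measured with a viability assay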
Description: SANGER: Inhibition of human SW1783 cell growth in a cell viability assay.

[29] = test system: SW48; type: functional, cell-based; conditions: Homo sapiens;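 note: growth inhibition of SW48 cells, read out with a cell viability assay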
Description: SANGER: Inhibition of human SW48 cell growth in a cell viability assay.

[30] = test system: SW756; type: functional, cell-based; conditions: Homo sapiens;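 note: growth inhibition of human SW756 cells, read out with a cell viability assay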
Description: SANGER: Inhibition of human SW756 cell growth in a cell viability assay.

[31] = test system: SW780; type: functional, cell-based; conditions: Homo sapiens;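 note: growth inhibition of the cells, read out with a cell viability assay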
Description: SANGER: Inhibition of human SW780 cell growth in a cell viability assay.

[32] = test system: SAOS-2; type: functional, cell-based; conditions: Homo sapiens;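 note: growth inhibition of human Saos-2 cells determined by a cell viability assay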
Description: SANGER: Inhibition of human Saos-2 cell growth in a cell viability assay.

[33] = test system: 639-V; type: functional, cell-based; conditions: Homo sapiens;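 note: growth inhibition of 639-V cells, read out with a cell viability assay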
Description: SANGER: Inhibition of human 639-V cell growth in a cell viability assay.

[34] = test system: 647-V; type: functional, cell-based; conditions: Homo sapiens;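 note: growth inhibition of 647-V cells, read out with a cell viability assay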
Description: SANGER: Inhibition of human 647-V cell growth in a cell viability assay.

[35] = test system: 769-P; type: functional, cell-based; conditions: Homo sapiens
Description: SANGER: Inhibition of human 769-P cell growth in a cell viability assay.

[36] = test system: 8505C; type: functional, cell-based; conditions: Homo sapiens
Description: SANGER: Inhibition of human 8505C cell growth in a cell viability assay.

[37] = test system: A 172; type: functional, cell-based; conditions: Homo sapiens;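 note: growth inhibition of A172 cells, measured with a cell viability readout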
Description: SANGER: Inhibition of human A172 cell growth in a cell viability assay.

[38] = test system: A204; type: functional, cell-based; conditions: Homo sapiens;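 note: growth inhibition of human A204 cells, read out with a cell viability assay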
Description: SANGER: Inhibition of human A204 cell growth in a cell viability assay.

[39] = test system: A-375; type: functional, cell-based; conditions: Homo sapiens;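 note: growth inhibition of A375 cells, read out with a cell viability assay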
Description: SANGER: Inhibition of human A375 cell growth in a cell viability assay.

[40] = test system: A-431; type: functional, cell-based; conditions: Homo sapiens;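 note: growth inhibition of A-431 cells, determined with a cell viability read-out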
Description: SANGER: Inhibition of human A431 cell growth in a cell viability assay.

[41] = test system: AN3-CA; type: functional, cell-based; conditions: Homo sapiens;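 note: growth inhibition of human AN3-CA cells measured by a cell viability assay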
Description: SANGER: Inhibition of human AN3-CA cell growth in a cell viability assay.

[42] = test system: C-33-A; type: functional, cell-based; conditions: Homo sapiens;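 note: cell viability assay measuring growth inhibition of C-33-A cells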
Description: SANGER: Inhibition of human C-33-A cell growth in a cell viability assay.

[43] = test system: CAL-120; type: functional, cell-based; conditions: Homo sapiens;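 note: cell growth inhibition, read out as cell viability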
Description: SANGER: Inhibition of human CAL-120 cell growth in a cell viability assay.

[44] = test system: CAL-33; type: functional, cell-based; conditions: Homo sapiens;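 note: growth inhibition of CAL-33 cells, read out with a cell viability assay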
Description: SANGER: Inhibition of human CAL-33 cell growth in a cell viability assay.

[45] = test system: VM-CUB-1; type: functional, cell-based; conditions: Homo sapiens;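 note: cell viability assay measuring growth inhibition of the human VM-CUB-1 cell line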
Description: SANGER: Inhibition of human VM-CUB-1 cell growth in a cell viability assay.

NC(=O)Nc1cc(-c2cccc(F)c2)sc1C(=O)N[C@H]1CCCNC1 [AZD-7762]
IC50 [1]: 388 nM | IC50 [2]: 1870 nM | IC50 [3]: > 2000 nM | IC50 [4]: 755 nM | IC50 [5]: 289 nM | IC50 [6]: 271 nM | IC50 [7]: > 2000 nM | IC50 [8]: 491 nM | IC50 [9]: > 2000 nM | IC50 [10]: > 2000 nM | IC50 [11]: 244 nM | IC50 [12]: 130 nM | IC50 [13]: > 2000 nM | IC50 [14]: 463 nM | IC50 [15]: > 2000 nM | IC50 [16]: 6.43 nM | IC50 [17]: > 2000 nM | IC50 [18]: 1520 nM | IC50 [19]: > 2000 nM | IC50 [20]: 637 nM | IC50 [21]: > 2000 nM | IC50 [22]: 1190 nM | IC50 [23]: 513 nM | IC50 [24]: > 2000 nM | IC50 [25]: > 2000 nM | IC50 [26]: > 2000 nM | IC50 [27]: > 2000 nM | IC50 [28]: 933 nM | IC50 [29]: 792 nM | IC50 [30]: 35.8 nM | IC50 [31]: 1200 nM | IC50 [32]: 746 nM | IC50 [33]: 1170 nM | IC50 [34]: 618 nM | IC50 [35]: 223 nM | IC50 [36]: 350 nM | IC50 [37]: 692 nM | IC50 [38]: 8.56 nM | IC50 [39]: 499 nM | IC50 [40]: 925 nM | IC50 [41]: 837 nM | IC50 [42]: 862 nM | IC50 [43]: > 2000 nM | IC50 [44]: 984 nM | IC50 [45]: 619 nM

CC1=C(/C=C/C(C)=C/C=C/C(C)=C/C(=O)O)C(C)(C)CCC1 [TRETINOIN]
IC50 [1]: > 10000 nM | IC50 [2]: > 10000 nM | IC50 [3]: > 10000 nM | IC50 [4]: > 10000 nM | IC50 [5]: > 10000 nM | IC50 [6]: > 10000 nM | IC50 [7]: > 10000 nM | IC50 [8]: > 10000 nM | IC50 [9]: > 10000 nM | IC50 [10]: > 10000 nM | IC50 [11]: > 10000 nM | IC50 [12]: > 10000 nM | IC50 [13]: > 10000 nM | IC50 [14]: 1150 nM | IC50 [15]: > 10000 nM | IC50 [16]: > 10000 nM | IC50 [17]: > 10000 nM | IC50 [18]: > 10000 nM | IC50 [19]: > 10000 nM | IC50 [20]: > 10000 nM | IC50 [21]: > 10000 nM | IC50 [22]: > 10000 nM | IC50 [23]: > 10000 nM | IC50 [24]: > 10000 nM | IC50 [25]: > 10000 nM | IC50 [26]: > 10000 nM | IC50 [27]: > 10000 nM | IC50 [28]: > 10000 nM | IC50 [29]: > 10000 nM | IC50 [30]: > 10000 nM | IC50 [31]: > 10000 nM | IC50 [32]: > 10000 nM | IC50 [33]: > 10000 nM | IC50 [34]: > 10000 nM | IC50 [35]: > 10000 nM | IC50 [36]: > 10000 nM | IC50 [37]: > 10000 nM | IC50 [38]: > 10000 nM | IC50 [39]: > 10000 nM | IC50 [40]: > 10000 nM | IC50 [41]: > 10000 nM | IC50 [42]: > 10000 nM | IC50 [43]: > 10000 nM | IC50 [44]: > 10000 nM | IC50 [45]: > 10000 nM
